Experimental data: ChEMBL document CHEMBL4665749, “Usnic Acid Conjugates with Monoterpenoids as Potent Tyrosyl-DNA Phosphodiesterase 1 Inhibitors” (J Nat Prod, 2020)

Legend:
HeLa [1] = assay: Potency index, ratio of CC50 of topotecan to CC50 of compound for human HeLa cells assessed as reduction in cell viability after 3 days in presence of topotecan by fluorometric assay; assay type: functional
HeLa [2] = assay: Cytotoxicity against human HeLa cells assessed as reduction in cell viability after 3 days by fluorometric assay; assay type: functional; conditions: 72 h
HeLa [3] = assay: Cytotoxicity against human HeLa cells assessed as reduction in cell viability after 3 days in presence of topotecan by fluorometric assay; assay type: functional; conditions: 72 h
[4] = molecular target: Tyrosyl-DNA phosphodiesterase 1 (Homo sapiens, UniProt Q9NUW8); assay: Inhibition of recombinant TDP1 (unknown origin) expressed in Escherichia coli using 5'-FAM/3'-BHQ1 tagged oligonucleotide as substrate by fluorescence assay
Tyrosyl-DNA phosphodiesterase 1, sequence (Q9NUW8 whole entry): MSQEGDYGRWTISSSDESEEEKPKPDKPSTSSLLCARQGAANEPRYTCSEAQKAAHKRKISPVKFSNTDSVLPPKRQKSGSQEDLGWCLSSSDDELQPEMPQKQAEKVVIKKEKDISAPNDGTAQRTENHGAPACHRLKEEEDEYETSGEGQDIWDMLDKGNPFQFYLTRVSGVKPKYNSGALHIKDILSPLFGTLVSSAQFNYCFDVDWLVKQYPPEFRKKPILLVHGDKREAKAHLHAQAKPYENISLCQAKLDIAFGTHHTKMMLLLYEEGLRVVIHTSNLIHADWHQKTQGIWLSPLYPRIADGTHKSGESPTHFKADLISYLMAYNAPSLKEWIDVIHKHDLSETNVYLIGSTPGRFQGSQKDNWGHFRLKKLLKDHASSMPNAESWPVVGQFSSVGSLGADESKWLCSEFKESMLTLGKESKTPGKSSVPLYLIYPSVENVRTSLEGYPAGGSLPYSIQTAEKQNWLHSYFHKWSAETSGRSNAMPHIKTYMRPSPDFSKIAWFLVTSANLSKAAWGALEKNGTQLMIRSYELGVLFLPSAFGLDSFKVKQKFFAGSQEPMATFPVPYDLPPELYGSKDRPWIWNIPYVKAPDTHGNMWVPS

| SMILES | Ratio (HeLa [1]) | CC50 (HeLa [2]) [µM] | CC50 (HeLa [3]) [µM] | IC50 [4] [µM] |
| --- | --- | --- | --- | --- |
| CC(=O)C1=C(O)C=C2Oc3c(-c4csc(NN=CCC(C)CCC=C(C)C)n4)c(O)c(C)c(O)c3[C@@]2(C)C1=O (stereo not given in full) | 7.1 | 20 | 0.63 | 0.0164 |
| CC(=O)C1=C(O)C=C2Oc3c(-c4csc(N/N=C5/C[C@H]6CC[C@]5(C)C6(C)C)n4)c(O)c(C)c(O)c3[C@@]2(C)C1=O | 1.7 | 20 | 2.7 | 0.031 |
| CC(=O)C1=C(O)C=C2Oc3c(-c4csc(NN=C5C=C(C)[C@H]6C[C@@H]5C6(C)C)n4)c(O)c(C)c(O)c3[C@@]2(C)C1=O (mixture of isomers) | 1.3 | 20 | 3.5 | 0.046 |
| CCCCCCCC=NNc1nc(-c2c(O)c(C)c(O)c3c2OC2=CC(O)=C(C(C)=O)C(=O)[C@@]23C)cs1 | – | 20 | – | 0.088 |
| CC(=O)C1=C(O)C=C2Oc3c(-c4csc(N/N=C\C5=C[C@@H]6C[C@H](C5)C6(C)C)n4)c(O)c(C)c(O)c3[C@@]2(C)C1=O | 1.7 | > 100 | 2.7 | 0.045 |
| CC[C@@]1(O)C(=O)OCc2c1cc1n(c2=O)Cc2cc3c(CN(C)C)c(O)ccc3nc2-1 [TOPOTECAN] | – | 4.5 | – | – |
| CC(=O)C1=C(O)C=C2Oc3c(-c4csc(NN=CCC(C)CCCC(C)(C)O)n4)c(O)c(C)c(O)c3[C@@]2(C)C1=O (stereo not given in full) | – | 20 | – | 0.139 |
| C=C(C)[C@H]1CC=C(/C=N\Nc2nc(-c3c(O)c(C)c(O)c4c3OC3=CC(O)=C(C(C)=O)C(=O)[C@@]34C)cs2)CC1 | 3.8 | 20 | 1.2 | 0.027 |
